Laboratory results from PubChem BioAssay AID1996.
Values after ≈ are worked out from the molar mass of the structure shown.

Conditions: buffer; pH 7.4; 200.0 µM
COc1ccc(CNC(=O)C2CC(C)=CCC2C(=O)O)cc1 (centres undefined) showed a solubility kinetic greater than 45.5 µg/mL. Compound Cc1ccc(S(=O)(=O)NCCC(=O)Nc2cccc(S(=O)(=O)N3CCCC3)c2)cc1C has a solubility kinetic of 30.5 µg/mL (≈ 65.5 µM). Compound COc1ccc(NCC(=O)Nc2cccc(C(F)(F)F)c2)cc1S(=O)(=O)N1CCOCC1 has a solubility kinetic of 3.4 µg/mL (≈ 7.18 µM). O=C(Cn1c(=O)oc2ccccc21)Nc1cccc(Cl)c1 showed a solubility kinetic of 2.1 µg/mL (≈ 6.94 µM). C=CCn1c(O)c(Cc2ccc(OCC)cc2)c(=O)[nH]c1=O gave a solubility kinetic of 43.7 µg/mL (≈ 145 µM). In the case of Cc1noc(-c2ccc(Cl)cc2)c1C(=O)O/N=C(\N)c1ccc(C(C)(C)C)cc1, the solubility kinetic is reported as 0.5 µg/mL (≈ 1.21 µM). With CN(CC(=O)Nc1cccc(C(F)(F)F)c1)C1=NS(=O)(=O)c2ccccc21 the solubility kinetic was 3.7 µg/mL (≈ 9.31 µM). With Cc1cccc(NC(=O)C2C3CCCCC32)c1 (centres undefined) the solubility kinetic was 3 µg/mL (≈ 13.1 µM). Compound CN(C(=O)/C=C/c1ccc(F)cc1)C1CCCCC1 has a solubility kinetic greater than 39.2 µg/mL. Work on CC(=O)c1cccc(OCC(=O)N(C)CC(=O)NCc2ccco2)c1 yielded a solubility kinetic greater than 51.7 µg/mL. Cc1ccc(C)c(N2CCN(C(=O)C3CCC3)CC2)c1 showed a solubility kinetic greater than 40.9 µg/mL. For O=C1CSC(c2cccnc2)N1Cc1cccnc1 (centres undefined), the solubility kinetic was 40.2 µg/mL (≈ 148 µM). Compound CCS(=O)(=O)Nc1cc2c3c(c1)CCC(=O)N3CCC2 has a solubility kinetic greater than 44.2 µg/mL. COC(=O)c1ccc(S(=O)(=O)N(CCO)Cc2ccccc2)n1C gave a solubility kinetic of 47.6 µg/mL (≈ 135 µM). Compound CC(=O)c1ccccc1NC(=O)COC(=O)CCC1CCCC1 has a solubility kinetic of 7.7 µg/mL (≈ 24.3 µM). Work on Cc1cc(NC(=O)CN2CCN(C)CC2)no1 yielded a solubility kinetic of 22.4 µg/mL (≈ 94 µM). CC(=O)c1sc(-c2ccccc2)cc1NS(=O)(=O)c1ccccc1 showed a solubility kinetic of less than 0.8 µg/mL. Compound c1ccc(CNc2cncnc2)cc1 has a solubility kinetic of 26.4 µg/mL (≈ 143 µM). Work on Cc1cccc(NC(=O)c2ccc(S(=O)(=O)N(C)c3ccccc3)cc2)n1 yielded a solubility kinetic of 11.6 µg/mL (≈ 30.4 µM). In the case of CN(C)CCOc1cccc(Br)c1.O=C(O)C(=O)O, the solubility kinetic is reported as 44.6 µg/mL. With COC(=O)c1cccc(NC(=O)C(C)(C)C)c1 the solubility kinetic was greater than 35.3 µg/mL. Work on CCc1cccc(CC)c1-n1c(SCC(=O)N2CCCc3ccccc32)nc(O)cc1=O yielded a solubility kinetic greater than 67.4 µg/mL. In the case of O=C(NC1CCN(C(=O)Nc2cccc(Cl)c2)CC1)c1ccccc1, the solubility kinetic is reported as 0.4 µg/mL (≈ 1.12 µM). CN1CCN(C(=O)/C=C/c2cccc(Cl)c2)CC1 gave a solubility kinetic greater than 39.7 µg/mL. O=C(Nc1cc(C(F)(F)F)ccc1Cl)c1cccnc1 gave a solubility kinetic of 32.7 µg/mL (≈ 109 µM). COc1ccc2[nH]c(C(=O)NCCN3CCOCC3)cc2c1 showed a solubility kinetic of 31.6 µg/mL (≈ 104 µM). In the case of CC(=O)c1sc(Nc2cccc(C)c2)nc1C, the solubility kinetic is reported as 3 µg/mL (≈ 12.2 µM). Work on Cc1ccc(C)c(S(=O)(=O)NCCCN2CCOCC2)c1 yielded a solubility kinetic greater than 46.9 µg/mL. Cc1ccc[n+](CC(=O)Nc2ccc(C)c(C)c2)c1.[Cl-] gave a solubility kinetic greater than 43.6 µg/mL. Work on COc1ccccc1C(=O)Nc1cccc2nc(C)ccc12 yielded a solubility kinetic of 39.1 µg/mL (≈ 134 µM). Compound O=S1(=O)c2cccc3cccc(c23)N1CCBr has a solubility kinetic of 17.7 µg/mL (≈ 56.7 µM). With Cc1cccc(NC(=O)c2cc3ccccc3nc2C)c1 the solubility kinetic was 29.3 µg/mL (≈ 106 µM). Work on CC1CC(NC(=O)/C=C/C(=O)O)CC(C)(C)C1 (centres undefined) yielded a solubility kinetic greater than 35.9 µg/mL. With N/C(=N\OC(=O)Cc1ccccc1[N+](=O)[O-])c1ccccn1 the solubility kinetic was 42.3 µg/mL (≈ 141 µM). CC1Cc2ccccc2N1S(=O)(=O)c1cnc(Cl)c(Cl)c1 (centres undefined) gave a solubility kinetic of 0.6 µg/mL (≈ 1.75 µM). Compound COC(=O)c1cc(NC(=S)NC(=O)c2ccccc2)ccc1N1CCOCC1 has a solubility kinetic of 1.8 µg/mL (≈ 4.51 µM). c1ccc(Nc2ccnc(Nc3ccccc3)n2)cc1 showed a solubility kinetic of 6.7 µg/mL (≈ 25.5 µM). CC(NC(=O)c1ccc(F)cc1)C1CC2CCC1C2 (centres undefined) gave a solubility kinetic of 6.9 µg/mL (≈ 26.4 µM). Work on O=C(NC12CC3CC(CC(C3)C1)C2)c1ccco1 yielded a solubility kinetic of 36.5 µg/mL (≈ 149 µM). Compound O=C1NCCN1CCNS(=O)(=O)c1ccc(F)c(Cl)c1 has a solubility kinetic greater than 48.3 µg/mL. Work on Cc1ccc(N=C2C(=O)Nc3ccccc32)c(C)c1 yielded a solubility kinetic of 28.8 µg/mL (≈ 115 µM). CC(C)Cn1c(=O)[nH]c(=O)c2c(C(F)(F)F)cc(-c3ccccc3)nc21 gave a solubility kinetic of less than 0.3 µg/mL. In the case of COc1ccc(CC(=O)OCC(=O)NCc2ccc3c(c2)OCO3)cc1OC, the solubility kinetic is reported as greater than 58.1 µg/mL. In the case of COc1ccc(NC(=S)NCCc2ccccc2)c(C)c1, the solubility kinetic is reported as 8.5 µg/mL (≈ 28.3 µM). For c1ccc(N2CCN(CC3CCCCC3)CC2)cc1, the solubility kinetic was 17 µg/mL (≈ 65.8 µM). CC(=O)c1cn(CCOc2ccc(F)cc2)c2ccccc12 gave a solubility kinetic of 10.8 µg/mL (≈ 36.3 µM). In the case of CCOC(=O)C1C(c2ccccc2O)NC(=O)NC1(O)C(F)(F)F (centres undefined), the solubility kinetic is reported as greater than 52.2 µg/mL. Compound CCC(C)NC(=O)Cn1nc(C(F)(F)F)c2c1CCC2 (centres undefined) has a solubility kinetic greater than 43.4 µg/mL. Compound Cc1nc(SCC(=O)Nc2ccc(S(=O)(=O)N3CCOCC3)cc2)c2c(C)c(C)sc2n1 has a solubility kinetic of 7.3 µg/mL (≈ 14.8 µM). With CC(=NCc1ccco1)c1c(O)n(-c2ccc(C)cc2)c(=O)[nH]c1=O the solubility kinetic was 12.5 µg/mL (≈ 36.8 µM). COc1cc(CNC(=O)C2CC2)ccc1OCc1ccccc1 gave a solubility kinetic of 8.4 µg/mL (≈ 27 µM). With Fc1ccccc1NC(=S)NCCc1cccc(Cl)c1 the solubility kinetic was 36.7 µg/mL (≈ 119 µM). With CC(=O)Nc1cccc(C(=O)OC2CCOC2=O)c1 (centres undefined) the solubility kinetic was greater than 39.5 µg/mL. CSC1=NCCN1C(=O)c1c(-c2c(F)cccc2Cl)noc1C showed a solubility kinetic greater than 53.1 µg/mL. Cc1cccc(NC(=S)NCc2ccccc2)c1C showed a solubility kinetic of 35.1 µg/mL (≈ 130 µM). Work on Cc1nccc(-c2sc(-c3cccs3)nc2C)n1 yielded a solubility kinetic of 2.6 µg/mL (≈ 9.51 µM). With O=C(Nc1nc2ccccc2[nH]1)c1ccccc1OC(F)F the solubility kinetic was 8.9 µg/mL (≈ 29.3 µM). CCCCn1c(N)c(N(CC)C(=O)c2c(C)noc2C)c(=O)[nH]c1=O showed a solubility kinetic greater than 52.4 µg/mL. In the case of CN1CCN(C(=O)C23CC4CC(C)(CC(C)(C4)C2)C3)CC1.Cl, the solubility kinetic is reported as 47.8 µg/mL.
